{"source": "patent US20120071431A1", "about": "“Platycodin Radix Extracts, and Their Use in Treating Disease Conditions Associated with Angiogenesis” (priority 2010, published 2012)", "key": {"[1]": {"test_system": "angiogenesis in human fat tissue", "assay": "human fat tissue angiogenesis assay (substance added to the media)", "format": "cell-based", "protocol": "The above extracts of platycodin, both PS and PD, were assayed for antiangiogenic activity using the human fat angiogenesis assay of Greenway et al. (2007).\nStudy 1: An aqueous extract of Platycodi radix saponins at 1% w/v was tested in our human adipose tissue assay. Briefly, subcutaneous adipose tissue was removed from patients undergoing cosmetic surgical procedures. The fat was placed directly into sterile assay media, transported directly to the laboratory from the surgery suite in the sterile container and processed under a laminar flow hood. The tissue was cut into fragments approximately 1 mm thick and 2 mm in diameter. These fragments were placed in 96-well plates containing a 4 μL human thrombin solution (0.05 IU in 4 μL per well) and covered with 100 μL clotting media (3 mg/mL fibrinogen; Sigma Chemical Co., St Louis, Mo., USA), 0.5% ε-amino caproic acid (Sigma Chemical Co.) in angiogenesis media containing 100 U/mL penicillin, 100 U/mL streptomycin sulfate and 2.5 μg/mL amphotericin β in Medium 199 (Gibco BRL, Gaithersburg, Md., USA). The mixture was allowed to clot by incubation in 6% CO2 at 37° C. in a humidified incubator. After the media had gelled overnight, the fat-containing clot was supplemented with 100 μL angiogenesis media containing 20% fetal bovine serum (Gibco BRL). The total volume of each well was 200 μL. There were 30 replicates for the 1% w/v Platycodi radix saponins and the media control. The angiogenesis media were replaced every 48 h and appropriate concentrations of fresh Platycodi radix saponins or media control were added. Wells were evaluated for the angiogenic response as described by Greenway et al. (2007). An observer unbiased to the treatment protocols evaluated the angiogenic response using a semi-quantitative visual rating scale. Briefly, the tissue was viewed under an inverted microscope, visually divided into four quadrants and each quadrant was given a numeric score from 0 to 4 based on the neovessels' length, density, and percentage of the quadrants' circumference involved with the angiogenic response. Numeric results from the four quadrants were summed and expressed as an angiogenic index ranging from 0 (no neovessels apparent in any quadrant) to 16 (highly vascularized in all four quadrants). The extract of Platycodi radix saponins at 1% w/v was tested, followed by Platycodin D, and finally by the Platycodi radix saponins standardized to the Platycodin D content."}, "pancreatic lipase": {"target": "T1, pancreatic lipase (Homo sapiens, UniProt P16233)", "T1 sequence (P16233 17-465)": "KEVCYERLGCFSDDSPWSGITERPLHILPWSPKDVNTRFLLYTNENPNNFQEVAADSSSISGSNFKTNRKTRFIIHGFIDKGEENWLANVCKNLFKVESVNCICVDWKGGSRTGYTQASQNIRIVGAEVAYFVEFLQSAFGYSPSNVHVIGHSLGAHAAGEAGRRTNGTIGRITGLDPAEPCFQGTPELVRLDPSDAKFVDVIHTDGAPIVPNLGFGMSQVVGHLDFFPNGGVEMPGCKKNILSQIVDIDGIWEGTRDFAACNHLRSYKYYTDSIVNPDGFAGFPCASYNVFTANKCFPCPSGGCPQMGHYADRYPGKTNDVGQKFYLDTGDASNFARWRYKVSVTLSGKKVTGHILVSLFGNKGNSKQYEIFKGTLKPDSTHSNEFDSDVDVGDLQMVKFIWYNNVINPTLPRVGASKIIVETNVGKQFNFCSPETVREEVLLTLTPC", "details": "cited from earlier work"}}, "note": "“Also recorded” adds a separate entry of the source.", "data": [{"smiles": "C[C@@H]1O[C@@H](O[C@H]2[C@H](OC(=O)[C@]34CCC(C)(C)C[C@H]3C3=CC[C@@H]5[C@@]6(C)C[C@H](O)[C@H](O[C@@H]7O[C@H](CO)[C@@H](O)[C@H](O)[C@H]7O)C(CO)(CO)[C@@H]6CC[C@@]5(C)[C@]3(C)C[C@H]4O)OC[C@H](O)[C@@H]2O)[C@H](O)[C@H](O)[C@H]1O[C@@H]1OC[C@@H](O)[C@H](O[C@@H]2OC[C@](O)(CO)[C@H]2O)[C@H]1O", "note": "[PD, platycodin D]", "values": [{"measurement": "inhibition of angiogenesis (angiogenic index)", "setting": "[1]; 10^-4 M (concentration of platycodin D) and higher", "value": "complete inhibition of angiogenesis"}, {"measurement": "inhibition of angiogenesis", "setting": "[1]; 10^-5 M, difference not statistically significant", "value": "partial inhibition"}, {"measurement": "inhibition of angiogenesis", "setting": "[1]; concentration not given", "value": "inhibited angiogenesis; also recorded: inhibitors of angiogenesis"}, {"measurement": "inhibition of angiogenesis", "setting": "[1]; concentrations above 10^-4 M", "value": "totally inhibited angiogenesis"}, {"measurement": "inhibition of angiogenesis", "setting": "[1]; concentrations below 10^-4 M", "value": "did not inhibit angiogenesis"}, {"measurement": "inhibition of pancreatic lipase", "setting": "pancreatic lipase", "value": "inhibit pancreatic lipase"}]}]}
